Test results reported in US20120122727A1, “IN VITRO METHOD FOR PREDICTING WHETHER A COMPOUND IS GENOTOXIC IN VIVO” (priority 2009, published 2012).

Legend:
[1] = system: primary mouse hepatocytes
[2] = in vivo; cited from earlier work
[3] = system: primary mouse hepatocytes; test: Gene expression (Affymetrix Mouse Genome 430 2.0) in primary mouse hepatocytes, true vs false GTX, 24 h and 48 h

SMILES: Cl.ClCc1ccccn1 [2-CP, 2-(Chloromethyl)pyridine.HCl]
- Gene expression data AF204959 (Cyp3a25 /// LOC622249) [1]: −0.5019
- GTX in vivo [2]: −
- Gene expression AA561726 average [3]: −0.4297
- Gene expression AF000969 average [3]: 0.2944
- Gene expression AF022072 average [3]: 0.04067
- Gene expression AF033112 average [3]: −0.6651
- Gene expression AF055573 average [3]: 0.3686
- Gene expression AF069954 average [3]: 0.199
- Gene expression AF297615 average [3]: −0.5906
- Gene expression AF335325 average [3]: −0.05667
- Gene expression AI594683 average [3]: −0.2197
- Gene expression AI747296 average [3]: −0.2637
- Gene expression AK005731 average [3]: −0.6019
- Gene expression AK007854 average [3]: 0.5513
- Gene expression AK010447 average [3]: −0.05023
- Gene expression AK010738 average [3]: 0.0059
- Gene expression AK014608 average [3]: −0.01263
- Gene expression AK017734 average [3]: 0.1489
- Gene expression AK018383 average [3]: −0.2158
- Gene expression AK019979 average [3]: −0.4249
- Gene expression AV095209 average [3]: −0.03467
- Gene expression AV141095 average [3]: −0.4102
- Gene expression AV173869 average [3]: 0.3109
- Gene expression AV216768 average [3]: −0.4179
- Gene expression AV219418 average [3]: 0.8281
- Gene expression AV221299 average [3]: 0.4545
- Gene expression AV246296 average [3]: −0.3558
- Gene expression AV251625 average [3]: 0.06723
- Gene expression AV254764 average [3]: 0.396
- Gene expression AV327248 average [3]: −0.2215
- Gene expression BB009155 average [3]: −0.348
- Gene expression BB027848 average [3]: 0.2054
- Gene expression BB043558 average [3]: −0.2293
- Gene expression BB046347 average [3]: 0.187
- Gene expression BB140436 average [3]: 0.2823
- Gene expression BB204486 average [3]: −0.3875
- Gene expression BB223872 average [3]: 0.1743
- Gene expression BB246912 average [3]: 0.5739
- Gene expression BB275142 average [3]: 0.091
- Gene expression BB458460 average [3]: −0.1792
- Gene expression BB463610 average [3]: 0.0113
- Gene expression BB730977 average [3]: −0.7313
- Gene expression BB743970 average [3]: −0.1686
- Gene expression BB770528 average [3]: −0.4836
- Gene expression BB781615 average [3]: 0.007033
- Gene expression BC003284 average [3]: −0.2395
- Gene expression BC004827 average [3]: −0.2477
- Gene expression BC005552 average [3]: 0.1255
- Gene expression BC006713 average [3]: 0.2405
- Gene expression BC010318 average [3]: 0.1986
- Gene expression BC012247 average [3]: 0.5221
- Gene expression BC012955 average [3]: 0.2863
- Gene expression BC013893 average [3]: 0.4871
- Gene expression BC017615 average [3]: −0.3193
- Gene expression BC019379 average [3]: −0.1926
- Gene expression BC019882 average [3]: 0.8148
- Gene expression BC021352 average [3]: −0.7192
- Gene expression BC022148 average [3]: 0.1919
- Gene expression BC025169 average [3]: 0.9283
- Gene expression BC026131 average [3]: 0.4079
- Gene expression BC027026 average [3]: −0.2177
- Gene expression BC027121 average [3]: −0.6553
- Gene expression BC027185 average [3]: 0.06273
- Gene expression BE956581 average [3]: 0.0444
- Gene expression BF719766 average [3]: −0.1259
- Gene expression BG065754 average [3]: −0.2817
- Gene expression BG066491 average [3]: −0.3489
- Gene expression BG076151 average [3]: −0.0769
- Gene expression BG076333 average [3]: 0.4759
- Gene expression BG797099 average [3]: 0.004233
- Gene expression BG967046 average [3]: −0.1557
- Gene expression BI651416 average [3]: −0.08753
- Gene expression BI966443 average [3]: −0.01713
- Gene expression BM198879 average [3]: −0.1026
- Gene expression BM200015 average [3]: −0.3607
- Gene expression BM230508 average [3]: −0.2554
- Gene expression BM936480 average [3]: −0.07417
- Gene expression BQ174991 average [3]: 0.1864
- Gene expression L21027 average [3]: −0.5404
- Gene expression NM_007556 average [3]: 0.1685
- Gene expression NM_007980 average [3]: −0.2848
- Gene expression NM_007987 average [3]: −0.3447
- Gene expression NM_008522 average [3]: 0.0213
- Gene expression NM_008935 average [3]: −0.2124
- Gene expression NM_009897 average [3]: −0.06103
- Gene expression NM_011075 average [3]: −0.5782
- Gene expression NM_011176 average [3]: −0.0046
- Gene expression NM_011316 average [3]: 0.5829
- Gene expression NM_012006 average [3]: −0.1277
- Gene expression NM_013642 average [3]: 0.3967
- Gene expression NM_013738 average [3]: −0.373
- Gene expression NM_013929 average [3]: −0.5291
- Gene expression NM_018881 average [3]: −0.0599
- Gene expression NM_019738 average [3]: −0.5143
- Gene expression NM_030697 average [3]: −0.0882
- Gene expression NM_053122 average [3]: 0.1396
- Gene expression NM_134147 average [3]: 0.6449
- Gene expression NM_134188 average [3]: −0.1373
- Gene expression X62701 average [3]: −0.146
- Gene expression data AF000969 (Cadps2) [3]: −0.1003
- Gene expression data AF022072 (Grb10) [3]: 0.621
- Gene expression data AF065917 (Lif) [3]: 0.01213
- Gene expression data AF297615 (Ggta1) [3]: 0.06963
- Gene expression data AI594683 (Dmn) [3]: −0.3157
- Gene expression data AI596632 (Ptprg /// LOC632664) [3]: 0.2251
- Gene expression data AI987929 (Ndrg1) [3]: −0.1004
- Gene expression data AK004419 (Fbxl17) [3]: −0.1203
- Gene expression data AK005731 (1700007K13Rik) [3]: 0.1965
- Gene expression data AK007766 (1810044A24Rik) [3]: −0.1235
- Gene expression data AK007854 (1810053B23Rik) [3]: −0.4492
- Gene expression data AK009736 (Gpr137b /// LOC664862 /// LOC673335) [3]: 0.9644
- Gene expression data AK010447 (Smyd3) [3]: 0.06097
- Gene expression data AK014608 (4632434l11Rik) [3]: 0.5726
- Gene expression data AK019979 (2610528E23Rik) [3]: 0.3731
- Gene expression data AV095209 (Mthfd1l) [3]: 0.5754
- Gene expression data AV141095 (1110033M05Rik) [3]: 0.1817
- Gene expression data AV173571 (1700106N22Rik) [3]: −0.01367
- Gene expression data AV219418 (Ldhb) [3]: −0.7968
- Gene expression data AV223474 (Zdhhc14) [3]: −0.4094
- Gene expression data AV298304 (Homez) [3]: 0.1881
- Gene expression data AV327248 (Zfp365 /// LOC674611) [3]: 0.1477
- Gene expression data AV377066 (9130221J18Rik) [3]: −0.6354
- Gene expression data AW240761 (Tbc1d5) [3]: 0.02803
- Gene expression data AW543460 (Pard3) [3]: 0.2263
- Gene expression data AW543723 [3]: 0.1487
- Gene expression data AW986246 (Maoa) [3]: 1.21
- Gene expression data BB027848 (4732466D17Rik) [3]: −0.5716
- Gene expression data BB043558 (9230114K14Rik) [3]: 0.4946
- Gene expression data BB275142 (AW456874) [3]: −0.1954
- Gene expression data BB308836 (Ppm1l) [3]: −0.3692
- Gene expression data BB318221 (Zdhhc14) [3]: −0.2464
- Gene expression data BB463610 (4632434l11Rik) [3]: 0.3848
- Gene expression data BB526605 (Mipol1) [3]: −0.2134
- Gene expression data BB770528 (Rai2) [3]: −0.3271
- Gene expression data BB821363 (Scfd2) [3]: −0.1883
- Gene expression data BC004827 (Psat1) [3]: 0.3654
- Gene expression data BC008626 (Icam1) [3]: −0.242
- Gene expression data BC010462 (BC010462) [3]: −0.5895
- Gene expression data BC012247 (Dcxr) [3]: −0.3261
- Gene expression data BC012260 (Psmf1) [3]: −0.824
- Gene expression data BC015270 (Hist2h3c2) [3]: −0.231
- Gene expression data BC016073 (Cdkal1) [3]: 0.03017
- Gene expression data BC016265 (Ube2e2) [3]: 0.0177
- Gene expression data BC019882 (Acaa1b) [3]: −0.0399
- Gene expression data BC025501 (Aaas) [3]: 0.0663
- Gene expression data BC025837 (Sbk1) [3]: −0.5042
- Gene expression data BC025915 (Cova1) [3]: 0.05827
- Gene expression data BC026422 (Tgm1) [3]: −0.3825
- Gene expression data BF719766 (Thyn1) [3]: 0.0395
- Gene expression data BG065754 (Ccng1) [3]: 0.3287
- Gene expression data BG066903 (Kif16b) [3]: 0.3368
- Gene expression data BG069873 (Gnb1l) [3]: −0.1027
- Gene expression data BG070887 (Gtdc1) [3]: −0.06773
- Gene expression data BG076151 (Ppm1d) [3]: 0.1213
- Gene expression data BG261907 (Large) [3]: −0.1177
- Gene expression data BI651416 (Cdc42bpg) [3]: 0.05237
- Gene expression data BI660702 (Ell3) [3]: 0.08167
- Gene expression data BM198879 (Ercc5) [3]: 0.2935
- Gene expression data BM230508 (A030007D23Rik) [3]: 0.3615
- Gene expression data NM_007987 (Fas) [3]: 0.2313
- Gene expression data NM_008522 (Ltf) [3]: −0.3581
- Gene expression data NM_008576 (Abcc1) [3]: 1.199
- Gene expression data NM_011176 (St14) [3]: −0.05393
- Gene expression data NM_011316 (Saa4) [3]: −0.04463
- Gene expression data NM_012006 (Acot1) [3]: 0.6012
- Gene expression data NM_013866 (Zfp385) [3]: −0.1346
- Gene expression data NM_018770 (Igsf4a) [3]: 0.14
- Gene expression data NM_021451 (Pmaip1) [3]: 0.02357
- Gene expression data NM_025770 (Atg10) [3]: 0.3445
- Gene expression data NM_028803 (Gbe1) [3]: 0.5242
- Gene expression data NM_030697 (Ankrd47) [3]: −0.5785
- Gene expression data NM_053168 (Trim11) [3]: −0.06783
- Gene expression data NM_134188 (Acot2) [3]: 0.501
- Gene expression data Y15910 (Diap2) [3]: 0.06693
